Test system: T1, PLZ1.4 (PhotoLanZyme 1.4)
T1 construct: de novo design; single-chain fusion of two TFD subunits via one Gly; active-site W6 and W175 removed, two active-site mutations, eight surface mutations (6x D to N, 2x E to Q); loaded with CeCl3
Assay: Michaelis-Menten kinetics of photocatalytic diol cleavage
Assay type: biochemical, synthetic construct
Conditions: CeCl3-loaded enzyme, visible light, aerobic, aqueous buffer

Structure (SMILES) | Km ((R,R) isomer per Figure 2F) | Km
O[C@H](c1ccccc1)[C@H](O)c1ccccc1 [(R,R)-1] | 2.9 ± 0.4 mM | 
OCC(Oc1ccccc1)C(O)c1ccccc1 (centres unmarked) [compound 24, lignin surrogate 24] |  | 5.5 ± 1 mM

Source: PMC11440500, “A De Novo Metalloenzyme for Cerium Photoredox Catalysis” (Journal of the American Chemical Society, 2024)
